# Measured values from ChEMBL document CHEMBL4339254, “Lamellarin Sulfates from the Pacific Tunicate Didemnum ternerratum” (J Nat Prod, 2019).
# System: HCT-116
# Test: Cytotoxicity in human HCT116 cells assessed as reduction in cell viability incubated for 48 hrs by MTS assay
# Format: functional, cell-based
# Settings: Homo sapiens, HCT-116, 48 h; read-out: IC50; call rule not given here
row,Structure (SMILES),IC50 [µM]
1,COc1cc(-c2c3n(c4c(=O)oc5cc(O)c(OC)cc5c24)CCc2c-3cc(OC)c(OC)c2O)ccc1O,4.3
2,COc1cc(-c2c3c4cc(OC)c(O)cc4oc(=O)c3n3ccc4cc(OS(=O)(=O)O)c(OC)cc4c23)ccc1O,9.7

# Same assay, conditions: hct-116
row,Structure (SMILES),IC50
1,COc1cc(-c2c3c4cc(OC)c(OS(=O)(=O)O)cc4oc(=O)c3n3ccc4cc(OC)c(OC)cc4c23)ccc1O,Not Active
2,COc1ccc(-c2c3n(c4c(=O)oc5cc(OS(=O)(=O)O)c(OC)cc5c24)CCc2c-3cc(OC)c(OC)c2O)cc1O,Not Active
3,COc1cc(-c2c3n(c4c(=O)oc5cc(OS(=O)(=O)O)c(OC)cc5c24)CCc2c-3cc(OC)c(OC)c2O)ccc1O,Not Active
4,COc1ccc(-c2c3n(c4c(=O)oc5cc(OS(=O)(=O)O)c(O)cc5c24)CCc2cc(OC)c(O)cc2-3)cc1O,Not Active
5,COc1cc(-c2c3n(c4c(=O)oc5cc(OS(=O)(=O)O)c(OC)cc5c24)CCc2cc(OC)c(OC)cc2-3)ccc1O,Not Active
